Measurements from patent publication US4670258A, “Storable prepackaged aqueous solutions of vancomycin” (Vanderbilt University, priority 1984, dated 1987).
Read-outs that look alike come from different tables or passages of the source.

How the values were obtained:
[1] = Peptide binding to vancomycin studied by UV spectroscopy
From the text: when studied by UV spectroscopy. The binding constants for the other

[2] = no additive, HPLC
Description: (§1) Solutions containing vancomycin (1 mmol) and peptide (either 1 mmol or 2 mmol) in a total volume of 2 ml (pH 4.1-4.2) were placed in screw-capped test tubes and heated at 80° C. for 17 hr. At the end of the reaction time aliquots of the reaction mixture were analyzed for vancomycin and its degradation products, CDP-I-Major (CDP-I-M) and CDP-I-minor (CDP-I-m), by HPLC (Harris, Kopecka and Harris (1983), J. Am. Chem. Soc. 105: 6915-6922).

[3] = cited from earlier work
Staphylococcus = conditions: cited from earlier work
physchem = conditions: water, pH 4.15
Description: as §1

Description for B. subtilis: The protection of antibiotic activity of vancomycin by binding peptide is illustrated by the following experiment. Solutions containing vancomycin (2 mmol) and peptide 4 mmol) in a total volume of 1 ml (pH 4.40) were placed in screw-capped test tubes and heated at 80° C. for 66 h. The residual antibiotic activity was measured by the disc diffusion technique with B. subtilis as the test organism (Coller and Gralnick (1977), J. Clinical Investigation 60: 302-312; Crossley, Rotschafer, Chern, Mead and Zaske (1980), Antimicrob. Agents and Chemother. 17: 654-657).
Vancomycin-peptide solutions were prepared as in the previous experiments and steam sterilized (15 psi) for 30 min. Antibiotic activity was measured as in Example II.

SMILES | measurable binding to vancomycin [1] | % Vancomycin remaining (unheated control) [2] [%] | % Activity (unheated) (B. subtilis; Table II, disc diffusion) [%] | % Activity (unheated) (B. subtilis; Table III, disc diffusion) [%] | % Activity (heated) (B. subtilis; heated 80° C. for 66 h, pH 4.40, disc diffusion) [%] | % Activity (steam sterilized) (B. subtilis; steam sterilized (15 psi) for 30 min, disc diffusion) [%] | storage stability in aqueous solution, refrigerated ([3]; refrigeration temperatures (viz. 5° C.)) | potency and pH change in aqueous solution on storage ([3]; room temperature or prolonged storage under refrigeration) | effectiveness against Staphylococcus (Staphylococcus) | remaining at 17 h (physchem) [%]
CC(=O)N[C@H](C)C(=O)NCCC(=O)O [Ac--D-ala-β-ala] | does not exhibit any measurable binding | – | – | – | – | – | – | – | – | –
CN[C@H](CC(C)C)C(=O)N[C@H]1C(=O)N[C@@H](CC(N)=O)C(=O)N[C@H]2C(=O)N[C@H]3C(=O)N[C@H](C(=O)N[C@H](C(=O)O)c4cc(O)cc(O)c4-c4cc3ccc4O)[C@H](O)c3ccc(c(Cl)c3)Oc3cc2cc(c3O[C@@H]2O[C@H](CO)[C@@H](O)[C@H](O)[C@H]2O[C@H]2C[C@](C)(N)[C@H](O)[C@H](C)O2)Oc2ccc(cc2Cl)[C@H]1O [Vancomycin] | – | 92 | 100 | 100 | 25 | 58 | can be stored for several weeks | potency is lost and autogenous pH changes occur | particularly effective | 49
